Results from US9949485B2, “Use of acylsulfonamides for improving plant yield” (BAYER CROPSCIENCE AG, priority 2013, dated 2018).

Legend:
[1] = test system: Triticum aestivum variety “AC Harvest”; assay: Growth chamber trial, post-emergence spray application, grain yield at full maturity; format: in vivo; conditions: single active ingredient, dose rate 10 g ai/ha; for change in vivo at 10 g/ha / response vs control in vivo at 10 g/ha: Triticum aestivum, post-emergence; for change in vivo at 10 g/ha: grain yield difference, read-out: Difference (%) vs. UTC; for response vs control in vivo at 10 g/ha: grain yield relative to UTC (100.0); for Grain Yield, g/plant: spray at BBCH 56-61, slightly reduced water, average of five replicates
[2] = test system: Triiticum aestivum seeds (TRZAS); assay: Seed treatment trial, grain yield; format: in vivo, Triticum aestivum; conditions: for Difference (%) vs. UTC: grain yield difference; for Relative, %: grain yield relative to UTC (100.0)
[3] = single active ingredient, 1 g ai/kg seed

| SMILES | change in vivo at 10 g/ha [1] | response vs control in vivo at 10 g/ha [1] | also measured |
| --- | --- | --- | --- |
| CN/C(=N\[N+](=O)[O-])NCc1cnc(Cl)s1 [Clothianidin (I-3), clothianidin] | 12.3% | 112% | – |
| CNC(=O)Nc1ccc(S(=O)(=O)NC(=O)c2ccccc2OC)cc1 [Compound (A1), N-(2-methoxybenzoyl)-4-[(methylaminocarbonyl)amino]benzenesulfonamide] | 12.3% | 112% | Grain Yield, g/plant [1]: 1.19 g/plant; Grain Yield, g/plant ([2]; dose rate 0.5 g ai/kg seed): 1.90 g/plant; Difference (%) vs. UTC ([2]; 0.5 g ai/kg seed): +5.6%; Difference (%) vs. UTC [2, 3]: +3.9%; Relative, % ([2]; 0.5 g ai/kg seed): 105.6%; Relative, % [2, 3]: 103.9%; Grain Yield, g/plant ([2]; single active ingredient, dose rate 1 g ai/kg seed): 1.87 g/plant |
| CC1COC(Cn2cncn2)(c2ccc(Oc3ccc(Cl)cc3)cc2Cl)O1 (centres unmarked) [Difenoconazole (F-105), difenoconazole] | -3.8% | 96.2% | – |
| N#Cc1nn(-c2c(Cl)cc(C(F)(F)F)cc2Cl)c(N)c1[S+]([O-])C(F)(F)F (centres unmarked) [Fipronil (I-8), fipronil] | 12.3% | 112% | – |
| O=[N+]([O-])NC1=NCCN1Cc1ccc(Cl)nc1 [Imidacloprid (I-11), imidacloprid] | 7.5% | 108% | – |
| OC(Cc1ccccc1Cl)(Cn1nc[nH]c1=S)C1(Cl)CC1 (centres unmarked) [Prothioconazole (F-124), prothioconazole] | -3.8% | 96.2% | – |
| COC(=O)N(OC)c1ccccc1COc1ccn(-c2ccc(Cl)cc2)n1 [Pyraclostrobin (F-57), pyraclostrobin] | 17% | 117% | – |
| CN1COCN(Cc2cnc(Cl)s2)/C1=N\[N+](=O)[O-] [Thiamethoxam (I-19), thiamethoxam] | 22.6% | 123% | Grain Yield, g/plant [1]: 1.30 g/plant |
| CON=C(C(=O)OC)c1ccccc1CON=C(C)c1cccc(C(F)(F)F)c1 [Trifloxystrobin (F-60), trifloxystrobin] | 5.7% | 106% | – |
